Results as given in patent publication US7531565B2, “Imidazolidin-2-one derivatives as selective androgen receptor modulators (SARMS)” (Janssen Pharmaceutica, N.V., priority 2004, dated 2009).

How the values were obtained:
[1] = system: castrated male Sprague Dawley rats; assay: Ventral prostate and seminal vesicle weight in vivo assay; design: species or system rat; key: A test compound was said to be “active” if the non weight adjusted prostate weight was ≦60 mg or ≧84 mg; they are listed herein as “inactive” as they did not meet the specified criteria defined above; conditions: immature castrated rats, once daily for five days, usually orally 40 mg/kg, with testosterone propionate 2 mg/kg s.c.
Method: Immature (approximately 50 g) castrated male Sprague Dawley rats (Charles River) were treated once daily for five days with test compound (usually given orally at 40 mg/kg in a volume of 0.3 mL, in 30% cyclodextrin or 0.5% methylcellulose vehicle) and with testosterone propionate (given subcutaneously by injection at the nape of the neck at 2 mg/kg, in a volume of 0.1 mL in sesame oil). On the sixth day, the rats were euthanized by asphyxiation in carbon dioxide. Ventral prosatates and seminal vesicles were removed and their wet weights determined. Test compound activity was determined as the percent inhibition of testosterone-enhanced tissue weights, with a vehicle-treated control group set to zero percent and a testosterone alone-treated control group set to 100%.
A test compound was said to be “active” if the non weight adjusted prostate weight was ≦60 mg or ≧84 mg.

[2] = molecular target: T1, androgen receptor (Rattus norvegicus, UniProt P15207); assay: Androgen receptor binding using rat ventral prostate cytosol; design: Male Sprague Dawley or Wistar rats (Charles River, 200-300 g) were used for each preparation; from tissue; host or cells: ventral prostate cytosol of castrated male Sprague Dawley or Wistar rats
T1 sequence (P15207 1-902): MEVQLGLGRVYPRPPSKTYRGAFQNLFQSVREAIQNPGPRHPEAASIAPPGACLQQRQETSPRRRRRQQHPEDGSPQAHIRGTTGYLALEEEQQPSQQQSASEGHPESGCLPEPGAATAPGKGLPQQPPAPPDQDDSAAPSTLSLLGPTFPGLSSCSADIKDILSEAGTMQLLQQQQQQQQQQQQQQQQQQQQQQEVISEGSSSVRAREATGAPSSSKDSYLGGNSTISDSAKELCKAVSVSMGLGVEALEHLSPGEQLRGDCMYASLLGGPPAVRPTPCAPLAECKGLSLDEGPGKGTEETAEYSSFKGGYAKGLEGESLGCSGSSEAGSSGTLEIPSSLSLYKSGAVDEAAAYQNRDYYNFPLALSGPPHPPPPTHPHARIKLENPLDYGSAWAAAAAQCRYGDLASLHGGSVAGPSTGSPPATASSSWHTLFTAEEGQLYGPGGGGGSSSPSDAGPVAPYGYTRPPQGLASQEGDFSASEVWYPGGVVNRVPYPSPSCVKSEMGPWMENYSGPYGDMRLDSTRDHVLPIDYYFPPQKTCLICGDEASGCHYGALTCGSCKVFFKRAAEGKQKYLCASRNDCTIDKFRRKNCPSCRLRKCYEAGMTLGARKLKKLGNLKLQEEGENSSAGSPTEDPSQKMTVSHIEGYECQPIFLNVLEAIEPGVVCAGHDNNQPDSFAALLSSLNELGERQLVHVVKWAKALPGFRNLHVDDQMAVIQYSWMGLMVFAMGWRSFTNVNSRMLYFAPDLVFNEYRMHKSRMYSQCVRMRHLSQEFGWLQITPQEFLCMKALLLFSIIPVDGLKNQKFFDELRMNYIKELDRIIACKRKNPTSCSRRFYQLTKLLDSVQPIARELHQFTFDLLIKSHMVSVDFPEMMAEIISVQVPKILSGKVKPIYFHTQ

[3] = molecular target: T1, androgen receptor; assay: L929 androgen receptor functional assay, adenovirus transduction; format: cell-based; design: expressed in transfected cells; conditions: for % Activition @ 3 μM: agonist testing (no R1881), luciferase
Method: L929 cells were plated in 96-well plates at 20,000 cells per well, in DMEM/F12 (GIBCO) containing 10% (v/v) charcoal-treated fetal bovine serum (Hyclone) and lacking phenol red. The plates were then incubated overnight at 37° C. in 5% (v/v) humidified CO2.
Test compound dilutions were prepared in 100% (v/v) DMSO, if necessary. Each dilution was made to 1250× the final desired assay concentration. First, 2 mL of DMEM/F12 lacking phenol red was pipetted into the wells of a 2-mL 96-well assay block. Next, 4 μL of the 1250× test compound dilutions were pipetted into each well of the assay block. The mixtures within the well were then carefully mixed by pipette.
In a 15 mL or 50 mL sterile centrifuge tube, a 2.5 nM (2.5×) dilution of R1881 (methyl-trienolone) in DMEM/F12 lacking phenol red was prepared. In a second 15 mL or 50 mL centrifuge tube a solution containing an equal volume of DMEM to the first and an equal volume of 100% (v/v) DMSO to the volume of R1881 used in the first tube was prepared.
In a 15 mL or 50 mL sterile centrifuge tube, a dilution in DMEM/F12 of the adenovirus AdEasy+rAR at an moi of 1:500 per well was prepared. The medium was removed from the 96-well plates by inversion and dried, inverted, very briefly. As soon as possible after medium removal, 40 μL of the diluted unlabeled test compound was added to each well, in duplicate. To each well designated for antagonist testing was added 40 μL of the 2.5 nM R1881 dilution to the wells for antagonist testing. To each well designated for agonist testing was added 40 μL of the DMSO dilution. Then 20 μL of the diluted adenovirus were added to all wells. The plates were incubated for 48 hours at 37° C. in 5% (v/v) humidified CO2.
To each well was added 100 μL of Steady-Glo luciferase assay substrate (Promega) and the plates were placed on a rotary shaker for 1 min. The plates were then incubated at room temperature in the dark for one hour. The contents of each well were then transferred to a white microtiter plate (Packard) and read on a Luminoskan Ascent (Thermo Lab Systems).
L929 AR percent activity was determined by testing dilutions of the test compound using a concentration of 3000 nM unless otherwise noted. L929 percent inhibition was determined by testing dilutions of the test compound using a concentration of 3000 nM. EC50s and IC50s were determined by testing serial dilutions of the test compound (usually duplicate ten half-log dilutions starting at 10 μM). Luciferase activity per well were measured and EC50s and IC50s determined by linear regression.
Representative compounds of the present invention were tested for functional activity at the androgen receptor according to the procedure described above with results as listed in Table 4.

[4] = 3 μM, L929 cells, antagonist testing with R1881, luciferase

| SMILES | active / inactive by non weight adjusted prostate weight [1] | % Inhibition @ 3 μM [2] [%] | % Activition @ 3 μM ([3]; 3 μM, L929 cells) [%] | % Inhibition @ 3 μM [3, 4] [%] | inhibition at 3 µM [2] [%] | inhibition at 3 µM ([3]; L929, read-out: % Inhibition @ 3 μM) [%] | inhibition at 3 µM ([3]; 3 μM, L929 cells, antagonist testing with R1881, luciferase, read-out: % Inhibition @ 3 μM) [%] |
| --- | --- | --- | --- | --- | --- | --- | --- |
| COC(=O)C1(C)CN(c2ccc(C#N)c(C(F)(F)F)c2)C(=O)N1 (racemic) [Compound 4e] | active | −68 | 0 | −15 |  |  |  |
| CC1(C(=O)Nc2cccc(C(F)(F)F)c2)CN(c2ccc(F)cc2)C(=O)N1 (racemic) [Compound 6g] | inactive | 23 | 0 | −12 |  |  |  |
| CC1(C(=O)Nc2ccc(C(F)(F)F)nc2)CN(c2ccccc2)C(=O)N1 (racemic) [Compound 6j] | inactive | −75 | 0 | 29 |  |  |  |
| CC1(C(=O)Nc2ccc(C#N)c(C(F)(F)F)c2)CN(c2ccccc2)C(=O)N1 (racemic) [Compound 6d] | inactive | 1 | 0 | 59 |  |  |  |
| COC(=O)C1(C)CN(c2ccccc2)C(=O)N1 (racemic) [Compound 4b] | active | −71 | 0 | 34 |  |  |  |
| COc1ccc(N2CC(C)(C(=O)Nc3ccc(C#N)c(C(F)(F)F)c3)NC2=O)cc1 (racemic) [Compound 6c] | inactive | 29 | 0 | 11 |  |  |  |
| CC1(C(=O)Nc2ccc(C#N)c(C(F)(F)F)c2)CN(c2ccc(F)cc2)C(=O)N1 (stereo not shown) [Compound 6a, 1-(4-Fluoro-phenyl)-4-methyl-2-oxo-imidazolidine-4-carboxylic acid (4-cyano-3-trifluoromethyl-phenyl)-amide] | active |  | 9 |  | 63 | 37 |  |
| COC(=O)C1(C)CN(c2ccc(Cl)c(C(F)(F)F)c2)C(=O)N1 (racemic) [Compound 4d] | inactive | 24 | 0 | 1 |  |  |  |
| CC1(C(=O)O)CN(c2ccc(Cl)c(C(F)(F)F)c2)C(=O)N1 (racemic) [Compound 5d] | inactive | 28 | 0 | −30 |  |  |  |
| CC1(C(=O)Nc2cc(C(F)(F)F)cc(C(F)(F)F)c2)CN(c2ccc(F)cc2)C(=O)N1 (racemic) [Compound 6h] | active | −17 | 0 | 21 |  |  |  |
| CC1(C(=O)Nc2ccc([N+](=O)[O-])c(C(F)(F)F)c2)CN(c2ccccc2)C(=O)N1 (racemic) [Compound 6e] | inactive | −71 | 2 | 96 |  |  |  |
| COc1ccc(N2CC(C)(C(=O)O)NC2=O)cc1 (racemic) [Compound 5c] | inactive | −21 | −5 | −14 |  |  |  |
| CC1(C(=O)O)CN(c2ccccc2)C(=O)N1 (racemic) [Compound 5b] | inactive | −110 | 0 | 32 |  |  |  |
| CC1(C(=O)O)CN(c2ccc(F)cc2)C(=O)N1 (stereo not shown) [Compound 5a, 1-(4-Fluoro-phenyl)-4-methyl-2-oxo-imidazolidine-4-carboxylic acid] | inactive |  | 1 |  | 33 |  | 15 |
| COC(=O)C1(C)CN(c2ccc(OC)cc2)C(=O)N1 (racemic) [Compound 4c] | inactive | −36 | 2 | 5 |  |  |  |
| CC1(C(=O)Nc2ccccc2)CN(c2ccccc2)C(=O)N1 (racemic) [Compound 6b] | inactive | −68 | 0 | 54 |  |  |  |
